IC50 data for 15 compounds are collected here from patent US10538555B2, “Macrocyclic inhibitors of the PD-1/PD-L1 and CD80(B7-1)/PD-L1 protein/protein interactions” (BRISTOL-MYERS SQUIBB COMPANY, priority 2014, dated 2020).

*1 amine or outer side, *2 acyl side, *3 side chain or, on linkers, in order; H or OH if unused. Where a SMILES comes first, the peptide text is derived from it. Bridges are numbered along the chain shown (N, C = ends). [ ]: non-standard residue; d: D form. ξ: configuration not given here. Trp(1-CH2COOH) = N[C@@H](Cc1cn(CC(=O)O)c2ccccc12)C(=O)O; Phe(3,4,5-F3) = N[C@@H](Cc1cc(F)c(F)c(F)c1)C(=O)O; Phe(3,4-F2) = N[C@@H](Cc1ccc(F)c(F)c1)C(=O)O; NMePhe(4-F) = CN[C@@H](Cc1ccc(F)cc1)C(=O)O; d(cisHyp) = O=C(O)[C@H]1C[C@@H](O)CN1; NMeY = CN[C@@H](Cc1ccc(O)cc1)C(=O)O; Hyp = O=C(O)[C@@H]1C[C@@H](O)CN1; NMeF = CN[C@@H](Cc1ccccc1)C(=O)O; X1 = O=C([C@H]1COCCN1[*:1])[*:2]; dNMeF = CN[C@H](Cc1ccccc1)C(=O)O; dHyp = O=C(O)[C@H]1C[C@H](O)CN1; NMeNle = CCCC[C@H](NC)C(=O)O; dPip = O=C(O)[C@H]1CCCCN1; hSer = N[C@@H](CCO)C(=O)O; NMeA = CN[C@@H](C)C(=O)O; Orn = NCCC[C@H](N)C(=O)O; dThz = O=C(O)[C@H]1CSCN1; Dab = NCC[C@H](N)C(=O)O; Dap = NC[C@H](N)C(=O)O; ξC = NC(CS)C(=O)O; Sar = CNCC(=O)O

T1 sequence (Q9NZQ7 with tags, fused parts or gaps): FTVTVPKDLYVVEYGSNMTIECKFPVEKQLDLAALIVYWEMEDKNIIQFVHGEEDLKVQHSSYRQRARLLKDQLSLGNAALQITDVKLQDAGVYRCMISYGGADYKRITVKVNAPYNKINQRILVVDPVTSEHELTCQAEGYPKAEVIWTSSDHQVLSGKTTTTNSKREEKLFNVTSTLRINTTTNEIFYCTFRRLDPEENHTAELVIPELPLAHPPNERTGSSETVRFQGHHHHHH

The first assay addresses T1, Human PD-L1/PD-1 (Homo sapiens, UniProt Q9NZQ7).
T1 construct: TVMV protease cleavage site (C); made in house; host or cells: HEK293T cells
Description: HTRF Human PD-L1/PD-1 binding assay (PD-1-Ig/PD-L1-His). The settings on record: PD-L1-His 10 nM, PD-1-Ig 20 nM; class symbol; read-out: HTRF Human PD-L1/PD-1 Binding Assay IC50 Range. Put shortly:
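HTRF read-out (665/620 nm ratio) after 30 min equilibration with Eu-cryptate anti-Ig mAb (1 nM) and APC anti-His mAb (20 nM). Peptides preincubated 15 min with PD-L1-His (10 nM), then PD-1-Ig (20 nM) added for 15 min.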
For orientation: In TR-FRET formats the signal depends on donor and acceptor labels being close together.
As for `CCCC[C@H]1C(=O)N(C)[C@@H](CCCC)C(=O)N[C@@H](CC(C)C)C(=O)N[C@H](C(=O)NCC(N)=O)CSCC(=O)N[C@@H](Cc2ccc(O)cc2)C(=O)N(C)[C@@H](C)C(=O)N[C@@H](CC(N)=O)C(=O)N[C@H](C)C(=O)N[C@@H](Cc2cnc[nH]2)C(=O)N[C@@H](CCC(N)=O)C(=O)N2C[C@H](O)C[C@H]2C(=O)N[C@@H](Cc2c[nH]c3ccccc23)C(=O)N[C@@H](CO)C(=O)N[C@@H](Cc2c[nH]c3ccccc23)C(=O)N1C` [Example 6262] ({CH2CO}-Y[NMeA]N[dA]HQ[Hyp]WSW[NMeNle][NMeNle]LCG-NH2; thioether N-14), the IC50 lay within 1 to 9.9 nM.
On the same count and under the same terms, for `CCCC[C@H]1C(=O)N(C)CC(=O)N[C@@H](CC(=O)O)C(=O)N[C@@H](C)C(=O)N(C)[C@@H](Cc2ccccc2)C(=O)N[C@@H](Cc2ccc(O)cc2)C(=O)N2CSC[C@@H]2C(=O)N[C@@H](Cc2c[nH]c3ccccc23)C(=O)N[C@@H](Cc2ccc(O)cc2)C(=O)N[C@@H](CC(C)C)C(=O)N[C@H](C(=O)NCC(N)=O)CSCC(=O)N[C@@H](Cc2ccccc2)C(=O)N(C)[C@@H](Cc2ccccc2)C(=O)N1C` [Example 10082] ({CH2CO}-F[NMeF][NMeNle][Sar]DA[NMeF]Y[dThz]WYLCG-NH2; thioether N-13) the value was 100 to 990 nM; for `CCCC[C@H]1C(=O)N2CCOC[C@@H]2C(=O)N[C@@H](CC(=O)O)C(=O)N[C@@H](C(C)C)C(=O)N(C)[C@@H](Cc2ccccc2)C(=O)N[C@@H](CCC(=O)O)C(=O)N2C[C@H](O)C[C@@H]2C(=O)N[C@@H](Cc2c[nH]c3ccccc23)C(=O)N[C@@H](Cc2ccc(O)cc2)C(=O)N[C@@H](CCOC)C(=O)N[C@H](C(=O)NCC(N)=O)CSCC(=O)N[C@@H](Cc2cc(F)c(F)c(F)c2)C(=O)N(C)[C@@H](Cc2ccccc2)C(=O)N1C` [Example 10189] ({CH2CO}-[Phe(3,4,5-F3)][NMeF][NMeNle][X1]DV[NMeF]E[d(cisHyp)]WY[hSer](Me)CG-NH2; thioether N-13), 10 to 99.9 nM.
Consider `CCCC[C@H]1C(=O)N(C)[C@@H](CCCC)C(=O)NCC(=O)N[C@H](C(=O)NCC(N)=O)CSCC(=O)N[C@@H](Cc2ccc(O)cc2)C(=O)N(C)[C@@H](C)C(=O)N[C@@H](CC(N)=O)C(=O)N2CCC[C@H]2C(=O)NCC(=O)N[C@@H](CCC(N)=O)C(=O)N2C[C@H](O)C[C@H]2C(=O)N[C@@H](Cc2c[nH]c3ccccc23)C(=O)N[C@@H](CO)C(=O)N[C@@H](Cc2c[nH]c3ccccc23)C(=O)N1C` [Example 5175] ({CH2CO}-Y[NMeA]NPGQ[Hyp]WSW[NMeNle][NMeNle]GCG-NH2; thioether N-14), for which the IC50 is 1 to 9.9 nM.
Consider `CCCC[C@H]1C(=O)N(C)[C@@H](CCCC)C(=O)N[C@@H](C)C(=O)N[C@H](C(=O)NCC(N)=O)CSCC(=O)N[C@@H](Cc2ccc(O)cc2)C(=O)N2CCCC[C@H]2C(=O)N[C@@H](CC(N)=O)C(=O)N2CCC[C@H]2C(=O)N[C@@H](Cc2cnc[nH]2)C(=O)N[C@@H](CCC(N)=O)C(=O)N2CCOC[C@H]2C(=O)N[C@@H](Cc2c[nH]c3ccccc23)C(=O)N[C@@H](CO)C(=O)N[C@@H](Cc2c[nH]c3ccccc23)C(=O)N1C` [Example 1277], for which the IC50 was in the range of 10 to 99.9 nM.
Turning to `CCCC[C@H]1C(=O)N(C)[C@@H](CCCC)C(=O)N[C@@H](CC(C)C)C(=O)N[C@H](C(=O)NCC(N)=O)CSCC(=O)N[C@@H](Cc2ccc(O)cc2)C(=O)N(C)[C@@H](C)C(=O)N[C@@H](CC(N)=O)C(=O)N2CCC[C@H]2C(=O)N[C@@H](CN)C(=O)N[C@@H](CC(C)C)C(=O)N2C[C@H](O)C[C@H]2C(=O)N[C@@H](Cc2c[nH]c3ccccc23)C(=O)N[C@@H](CCCCN)C(=O)N[C@@H](Cc2cn(CC(=O)O)c3ccccc23)C(=O)N1C` [Example 6296] ({CH2CO}-Y[NMeA]NP[Dap]L[Hyp]WK[Trp(1-CH2COOH)][NMeNle][NMeNle]LCG-NH2; thioether N-14), the IC50 lay within 1 to 9.9 nM.
Regarding `CCCC[C@H]1C(=O)N2C[C@H](O)C[C@@H]2C(=O)N[C@@H](CC(=O)O)C(=O)N[C@@H](C(C)C)C(=O)N(C)[C@H](Cc2ccccc2)C(=O)N[C@@H](CCN)C(=O)N2C[C@H](O)C[C@@H]2C(=O)N[C@@H](Cc2c[nH]c3ccccc23)C(=O)N[C@@H](Cc2ccc(O)cc2)C(=O)N[C@@H](CCCN)C(=O)N[C@H](C(=O)NCC(N)=O)CSCC(=O)N[C@@H](Cc2ccc(F)c(F)c2)C(=O)N(C)[C@@H](Cc2ccccc2)C(=O)N1C` [Example 9311] ({CH2CO}-[Phe(3,4-F2)][NMeF][NMeNle][d(cisHyp)]DV[dNMeF][Dab][d(cisHyp)]WY[Orn]CG-NH2; thioether N-13), the IC50 is 1 to 9.9 nM.
For the compound `CCCC[C@H]1C(=O)N(C)[C@@H](CCCC)C(=O)N[C@@H](CN)C(=O)N[C@H](C(=O)NCC(N)=O)CSCC(=O)N[C@@H](Cc2ccc(O)cc2)C(=O)N(C)[C@@H](C)C(=O)N[C@@H](CC(=O)O)C(=O)N2CCC[C@H]2C(=O)N[C@@H](Cc2c[nH]cn2)C(=O)N[C@@H](CCC(=O)O)C(=O)N2C[C@H](O)C[C@H]2C(=O)N[C@@H](Cc2c[nH]c3ccccc23)C(=O)N[C@@H](CCN)C(=O)N[C@@H](Cc2cn(CC(=O)O)c3ccccc23)C(=O)N1C` (single isomer, unassigned) [Example 5203], the IC50 was in the range of 1 to 9.9 nM.
The same measure, in the same setting: to `CCCC[C@H]1C(=O)N(C)[C@@H](CCCC)C(=O)N[C@@H](CCCNC(=N)N)C(=O)NC(C(=O)NCC(N)=O)CSCC(=O)N[C@@H](Cc2ccc(O)cc2)C(=O)N(C)[C@@H](C)C(=O)N[C@@H](CC(N)=O)C(=O)N2CCC[C@H]2C(=O)N[C@@H](CO)C(=O)N[C@@H](CCO)C(=O)N2C[C@H](O)C[C@H]2C(=O)N[C@@H](Cc2c[nH]c3ccccc23)C(=O)N[C@@H](CCO)C(=O)N[C@@H](Cc2c[nH]c3ccccc23)C(=O)N1C` (stereo partly drawn) [Example 10052] ({CH2CO}-Y[NMeA]NPS[hSer][Hyp]W[hSer]W[NMeNle][NMeNle]R[ξC]G-NH2; thioether N-14) belongs 1 to 9.9 nM; to `CCCC[C@H]1C(=O)N(C)[C@@H](CCCC)C(=O)N[C@@H](CCC(=O)O)C(=O)N[C@H](C(=O)NCC(N)=O)CSCC(=O)N[C@@H](Cc2ccc(O)cc2)C(=O)N(C)[C@@H](C)C(=O)N[C@@H](CC(N)=O)C(=O)N2CCC[C@H]2C(=O)N[C@@H](Cc2cnc[nH]2)C(=O)N[C@@H](CCCN)C(=O)N2C[C@H](O)C[C@H]2C(=O)N[C@@H](Cc2c[nH]c3ccccc23)C(=O)N[C@@H](CCCCN)C(=O)N[C@@H](Cc2cn(CC(=O)O)c3ccccc23)C(=O)N1C` [Example 6267] ({CH2CO}-Y[NMeA]NPH[Orn][Hyp]WK[Trp(1-CH2COOH)][NMeNle][NMeNle]ECG-NH2; thioether N-14), 1 to 9.9 nM.
The same measure, in the same setting: to `CCCC[C@H]1C(=O)N[C@@H](CC(N)=O)C(=O)N2CCC[C@H]2C(=O)N[C@@H](CO)C(=O)N[C@@H](CCO)C(=O)N2CCC[C@H]2C(=O)N[C@@H](Cc2c[nH]c3ccccc23)C(=O)N[C@@H](CCO)C(=O)N[C@@H](Cc2c[nH]c3ccccc23)C(=O)N(C)[C@@H](C)C(=O)N(C)[C@@H](C)C(=O)N[C@@H](CCC(=O)O)C(=O)NC(C(=O)NCC(N)=O)CSCC(=O)N[C@@H](Cc2ccc(O)cc2)C(=O)N1C` (stereo partly drawn) [Example 10215] ({CH2CO}-Y[NMeNle]NPS[hSer]PW[hSer]W[NMeA][NMeA]E[ξC]G-NH2; thioether N-14) belongs 1000 to 10000 nM; to `CCCC[C@H]1C(=O)N2C[C@@H](O)C[C@@H]2C(=O)N[C@@H](CC(=O)O)C(=O)N[C@@H](C(C)C)C(=O)N(C)[C@@H](Cc2ccccc2)C(=O)N[C@@H](CCC(=O)O)C(=O)N2CCCC[C@@H]2C(=O)N[C@@H](Cc2c[nH]c3ccccc23)C(=O)N[C@@H](Cc2ccc(O)cc2)C(=O)N[C@@H](CCC(N)=O)C(=O)N[C@H](C(=O)NCC(N)=O)CSCC(=O)N[C@@H](Cc2cc(F)c(F)c(F)c2)C(=O)N(C)[C@@H](Cc2ccc(F)cc2)C(=O)N1C` [Example 10559] ({CH2CO}-[Phe(3,4,5-F3)][NMePhe(4-F)][NMeNle][dHyp]DV[NMeF]E[dPip]WYQCG-NH2; thioether N-13), 1 to 9.9 nM.
Turning to `CCCC[C@H]1C(=O)N2CCC[C@@H]2C(=O)N[C@@H](CC(=O)O)C(=O)N[C@@H](C(C)C)C(=O)N(C)[C@@H](Cc2ccccc2)C(=O)N[C@@H](CCC(=O)O)C(=O)N2CCCC[C@@H]2C(=O)N[C@@H](Cc2c[nH]c3ccccc23)C(=O)N[C@@H](Cc2ccc(O)cc2)C(=O)N[C@@H](CC(C)C)C(=O)N[C@H](C(=O)NCC(N)=O)CSCC(=O)N[C@@H](Cc2cc(F)c(F)c(F)c2)C(=O)N(C)[C@@H](Cc2ccc(OC)cc2)C(=O)N1C` [Example 10602] ({CH2CO}-[Phe(3,4,5-F3)][NMeY](Me)[NMeNle][dP]DV[NMeF]E[dPip]WYLCG-NH2; thioether N-13), the IC50 fell in the range of 1 to 9.9 nM.
Still for that read-out and setting: to `CCCC[C@H]1C(=O)N(C)[C@@H](CCCC)C(=O)N[C@@H](CCC(=O)O)C(=O)N[C@H](C(=O)NCC(N)=O)CSCC(=O)N[C@@H](Cc2ccc(OC)cc2)C(=O)N(C)[C@@H](C)C(=O)N[C@@H](CC(N)=O)C(=O)N2CCC[C@H]2C(=O)N[C@@H](CN)C(=O)N[C@@H](CCCCN)C(=O)N2C[C@H](O)C[C@H]2C(=O)N[C@@H](Cc2c[nH]c3ccccc23)C(=O)N[C@@H](CC(=O)O)C(=O)N[C@@H](Cc2c[nH]c3ccccc23)C(=O)N1C` [Example 7127] ({CH2CO}-Y(Me)[NMeA]NP[Dap]K[Hyp]WDW[NMeNle][NMeNle]ECG-NH2; thioether N-14) belongs 10 to 99.9 nM.

Still in this assay, the particulars now being: PD-L1-His 10 nM, PD-1-Ig 20 nM; read-out: HTRF Human PD-L1/PD-1 Binding Assay IC50.
Regarding `CCCC[C@H]1C(=O)N(C)[C@@H](CCCC)C(=O)N[C@@H](CC(C)C)C(=O)N[C@H](C(=O)NCC(N)=O)CSCC(=O)N[C@@H](Cc2ccc(OC)cc2)C(=O)N(C)[C@@H](C)C(=O)N[C@@H](CC(N)=O)C(=O)N2CCC[C@H]2C(=O)N[C@@H](Cc2c[nH]cn2)C(=O)N[C@@H](CCC(N)=O)C(=O)N2C[C@H](O)C[C@H]2C(=O)N[C@@H](Cc2c[nH]c3ccccc23)C(=O)N[C@@H](CO)C(=O)N[C@@H](Cc2c[nH]c3ccccc23)C(=O)N1C` [Example 7135] ({CH2CO}-Y(Me)[NMeA]NPHQ[Hyp]WSW[NMeNle][NMeNle]LCG-NH2; thioether N-14), the IC50 was 5.6 nM.
